Test results: US12357618B2, “Rapamycin (RAPA) self-microemulsifying injection and preparation method and use thereof” (priority 2022, dated 2025)

Assay: Solubility of RAPA in the drug solvent of the stock solution
Type: physicochemical
Conditions: organic solvent or mixture; drug solvent of two or more solvents (absolute ethanol and latent solvent)
Description: In the RAPA self-microemulsifying injection of the present disclosure, the drug solvent includes absolute ethanol and a latent solvent, and the latent solvent is one or more selected from the group consisting of propylene glycol (PG), polyethylene glycol (PEG) 300, and PEG 400. The drug solvent of the present disclosure is a mixed solvent of two or more solvents in different proportions to dissolve RAPA, which can greatly improve the solubility of RAPA.

CO[C@H]1C[C@@H]2CC[C@@H](C)[C@@](O)(O2)C(=O)C(=O)N2CCCC[C@H]2C(=O)O[C@H]([C@H](C)C[C@@H]2CC[C@@H](O)[C@H](OC)C2)CC(=O)[C@H](C)/C=C(\C)[C@@H](O)[C@@H](OC)C(=O)[C@H](C)C[C@H](C)/C=C/C=C/C=C/1C [RAPA, rapamycin]
solubility: ≤ 60 mg/mL
